The target in test [1] is T1, ADAR1 (Homo sapiens, UniProt P55265).
T1 construct: endogenous in cells; host or cells: p110 KO A549 dual cells
T1 sequence (P55265 1-1226): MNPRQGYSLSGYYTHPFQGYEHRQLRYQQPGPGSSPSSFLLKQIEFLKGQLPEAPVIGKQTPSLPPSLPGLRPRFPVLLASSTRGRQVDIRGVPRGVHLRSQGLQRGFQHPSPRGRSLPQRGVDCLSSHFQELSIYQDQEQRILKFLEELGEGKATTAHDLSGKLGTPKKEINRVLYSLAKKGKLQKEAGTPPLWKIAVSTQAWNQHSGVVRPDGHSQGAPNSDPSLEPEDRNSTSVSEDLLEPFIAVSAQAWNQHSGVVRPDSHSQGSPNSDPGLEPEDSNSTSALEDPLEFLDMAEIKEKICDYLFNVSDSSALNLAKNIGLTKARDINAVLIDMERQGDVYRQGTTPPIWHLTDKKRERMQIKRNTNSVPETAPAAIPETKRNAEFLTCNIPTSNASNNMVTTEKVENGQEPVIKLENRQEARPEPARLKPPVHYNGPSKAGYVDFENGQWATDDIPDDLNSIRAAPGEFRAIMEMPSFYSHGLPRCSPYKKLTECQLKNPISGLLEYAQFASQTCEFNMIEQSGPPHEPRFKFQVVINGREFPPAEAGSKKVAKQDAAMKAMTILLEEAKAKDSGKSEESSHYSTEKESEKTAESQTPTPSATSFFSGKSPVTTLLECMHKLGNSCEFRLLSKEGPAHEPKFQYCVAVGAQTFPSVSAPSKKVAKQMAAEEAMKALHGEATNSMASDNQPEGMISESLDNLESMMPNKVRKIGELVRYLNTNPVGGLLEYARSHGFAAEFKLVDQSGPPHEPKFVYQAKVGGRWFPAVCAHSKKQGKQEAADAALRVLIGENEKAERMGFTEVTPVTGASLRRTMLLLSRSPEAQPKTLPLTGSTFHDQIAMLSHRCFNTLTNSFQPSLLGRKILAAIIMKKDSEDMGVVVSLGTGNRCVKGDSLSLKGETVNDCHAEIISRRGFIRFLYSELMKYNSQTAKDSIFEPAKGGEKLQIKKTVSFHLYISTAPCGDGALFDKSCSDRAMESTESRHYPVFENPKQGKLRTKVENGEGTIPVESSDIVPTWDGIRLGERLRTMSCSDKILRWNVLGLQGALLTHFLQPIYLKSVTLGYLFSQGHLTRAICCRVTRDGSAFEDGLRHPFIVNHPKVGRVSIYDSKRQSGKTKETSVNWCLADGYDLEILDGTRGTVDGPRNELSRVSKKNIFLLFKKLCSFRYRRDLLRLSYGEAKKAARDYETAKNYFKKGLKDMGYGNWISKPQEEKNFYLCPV
The test is described as follows: ADAR1 Inhibition Assay (IFN fold-induction, Quanti-Luc luminescence, p110 KO A549 dual cells). The format is cell-based. Conditions: IFN fold-induction vs DMSO, 24 and 48 h. Summed up:
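p110 KO A549 dual cells (20,000/well) in supplemented DMEM, treated next day with compound at 1% final DMSO for 24 and 48 h at 37 °C, 5% CO2. Supernatant luminescence read with Quanti-Luc; IFN fold-induction = sample RLU/mean DMSO RLU, used for EC50.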

The target of test [2] is T2, Zα domain of ADAR1 p150 (Homo sapiens, UniProt P55265).
T2 construct: 10 μg/ml of Zα domain of ADAR1 was immobilized on CM5 chip using anti-HIS antibody; made in house
T2 sequence (P55265 133-199 limits assumed): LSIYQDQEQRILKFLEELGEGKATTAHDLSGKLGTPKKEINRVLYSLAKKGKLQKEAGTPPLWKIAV
Description: SPR binding assay. The following applies: 6× his tag Zα domain immobilized on CM5 chip, analyte 0-25 μM. A digest of the protocol: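 His-tagged Zα domain of human ADAR1 p150, bacterially expressed and Ni-NTA purified, was captured at 10 μg/ml on a CM5 chip via anti-His antibody. Analytes ran at 0–25 μM in PBSP + 5% DMSO, 30 μL/min, with 60 s contact and 320 s dissociation. Kd came from curve fitting.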

For test [3], the system named is A549 p110 KO cells. The test is described as follows: IFN-β induction in A549 p110 KO cells. The format is cell-based, human.
The test system of test [4] is WT A549 cells. The test is described as follows: IFN-β induction in WT A549 cells. The test is classed as cell-based, human. Conditions: compared to A549 p110 KO cells, FIG. 1B.
Test [5] deals with A549 (p110 KO). The test is described as follows: Interferon-stimulated gene expression in A549 (p110 KO). The test is classed as cell-based, human. Conditions: FIG. 2, FIGS. 3A-3D.
For test [6], the system named is HCT 116. Description: Interferon-stimulated gene expression in HCT 116. The test is classed as cell-based, human. Conditions: FIG. 4, FIGS. 5A-5D.
For test [7], the system named is B16F10. Description: MDA5, IFN-β, CXCL10 levels in murine cancer cell line B16F10. The format is cell-based. Conditions: FIG. 6, FIGS. 7A-7B.
The test system of test [8] is B16F10 melanoma. Description: B16F10 mouse melanoma model, anti-tumor efficacy. The test is classed as in vivo. An excerpt: (§1) Study: A B16F10 mouse melanoma model was used to evaluate the anti-tumor efficacy of Compound 1, alone or in combination with anti-PD-1 therapy.
Test [9] deals with B16F10 tumors. Description: Tumor MDA5, IFN-β and CXCL10 levels in mice with B16F10 tumors. The format is in vivo, mouse.
Source text: as §1

SMILES strings stand for the structures.

With `CCOC(=O)c1cc(-c2ccccc2)sc1NC(=O)COC(=O)c1cccc(S(N)(=O)=O)c1` [Compound 1, Ethyl 5-phenyl-2-(2-((3-sulfamoylbenzoyl)oxy)acetamido)thiophene-3-carboxylate], the EC50 (in general, the concentration needed to bring the measured effect to its halfway point) in [1] is not above 25 µM. Also, the Kd (usually the equilibrium constant for the complex coming apart) in test [2] is not above 1 µM. For the same compound, the “IFN-β induction (via ADAR1 inhibition)” value in [3] (FIG. 1A) is recorded as “dose-dependent IFN-β induction”. Moreover, the “IFN-β induction compared to STING agonists cGAMP, ADU-S100, MSA-002” value in [3] (FIG. 1C) is “superior IFN-β induction”. For the same compound, the IFN-β induction entry in test [4] is recorded as “Lower IFN-β induction”. Moreover, the “expression of several interferon-stimulated genes (ISGs)” value in test [5] and in test [6] was “dose-dependent expression” throughout. Also, the “upregulation of MDA5, IFN-β, and CXCL10” value in test [7] is reported as “dose-dependent upregulation”. In addition, the “tumor growth inhibition (TGI)” value in [8] (B16F10 mouse melanoma model, FIG. 8) was 45%. For the same compound, the tumor weight reduction result in [8] (compared to vehicle control, Compound 1 100 μg, FIG. 9) is “about 60%”. The “tumor MDA5 mRNA levels” value in [9] (B16F10 melanoma model, FIG. 10) is “significant increase”. In test [9] (B16F10 tumors in mice, FIG. 11A, 11B), the “induction of IFN-β and CXCL10” value is “increased induction”.

`CCOC(=O)c1cc(-c2ccccc2)sc1NC(=O)COC(=O)c1cccc(N(C)S(C)(=O)=O)c1` [Compound 130] came in with an EC50 in test [1] of more than 100 µM. Also, the Kd in [2] was not above 1 µM.

`CCOC(=O)c1cc(-c2ccccc2)sc1NC(=O)[C@H]1CCCN1C(=O)c1cccc(P(=O)(O)O)c1` [Compound 414] yielded an EC50 in [1] of more than 100 µM. In test [2], the Kd was not above 1 µM.

In test [1], `CCOC(=O)c1cc(-c2ccccc2)sc1NC(=O)CNC(=O)c1cccc(P(=O)(O)O)c1` [Compound 367] gave an EC50 of more than 100 µM. In test [2], this compound returned a Kd not above 1 µM.

The record behind these values is patent publication US20260200890A1, “ADAR1 INHIBITORS AND METHODS OF USING THE SAME” (AVAMMUNE THERAPEUTICS INC., priority 2022, published 2026).
